Laboratory results as given in patent publication EP2468718A1, “Cabanillasin, a new antifungal compound, produced by entomopathogenic xenorhabdus cabanillasii” (Nosopharm, priority 2010, dated 2012).
Where two headings read alike, the source gives them in different places.

Legend:
[1] = tested on: Candida lusitaniae CBS 6936; experiment: Antifungal susceptibility testing, NCCLS M27-A2 broth microdilution (yeasts); type: cell-based; conditions: Clavispora lusitaniae, CBS6936, read-out: % of growth inhibition
Method: (§1) Cabanillasin activity was tested against different fungal human pathogens: ascomycetes yeasts (Candida albicans ATCC 90029, Candida Glabrata ATCC 90030, Candida krusei ATCC 6258 and Candida lusitaniae CBS 6936), basidiomycetes yeasts (Cryptococcus neoformans clinical strain), ascomycetes filamentous fungi (Aspergilus fumigatus clinical strain, Fusarium oxysporum clinical strain) and zygomycetes filamentous fungi (Rhizopus oryzae environemental strain) by the M38-A microdilution method with RPMI 1640 medium (RPMI 1640, MOPS 160 mM, glucose 18 g/L, pH 7) as recommended in the […]. The NCCLS M27-A2 broth microdilution method (NCCLS) was used when yeasts were tested.
(§2) Yeasts and filamentous inoculi were prepared on YPD medium (yeast extract 10 g/L, peptone 10 g/L and glucose 20 g/L) and Malt medium (malt extract 20 g/L) respectively. The densities of inoculi were adjusted by dilution in RPMI 1640 broth to a value ranged from 5.10^2 to 5.10^3 CFU/mL for yeasts isolates and 5.10^3 to 5.10^4 CFU/mL for filamentous fungi. Microdilution trays (96 U-bottom shaped) containing 190 µL fungal inoculum were added with 10 µL Cabanillasin solution (final concentration ranging from 50 to 0.098 mg/L for all fungi). After inoculation of the trays, all microdilution trays were incubated at 35°C in ambient air. The culture absorbance was measured at 600 nm, 24 h and 48 h after the beginning of the experiments for the yeasts and 48 h and 72 h after the beginning of the experiments for filamentous fungi and Cryptococcus neoformans. The activity results correspond to a percentage of growth inhibition ((1-Abs600 nm culture with Cabanillasin)/ Abs600 nm culture without Cabanillasin) x 100.
(§3) The IC50 value is the concentration at which inhibition of growth is equal to 50%. MICs for Candida species were determined at 24 h and 48 h and corresponded to 100% of growth inhibition. Amphotericin B was provided as standard (final concentration ranging from 16 to 0.03 mg/L for all fungi). Experiments were done in duplicate.

[2] = tested on: Candida Glabrata ATCC 90030; experiment: as above; type: cell-based; conditions: Nakaseomyces glabratus, ATCC90030, read-out: % of growth inhibition
Method: as §1, §2, §3

[3] = tested on: Aspergilus fumigatus clinical strain; experiment: Antifungal susceptibility testing, M38-A microdilution method (filamentous fungi); type: cell-based, Aspergillus fumigatus; conditions: Aspergillus fumigatus, read-out: % of growth inhibition
Method: as §1, §2, §3

## C[C@@H]1[C@H](O)[C@@H](C)/C=C/C=C/C=C/C=C/C=C/C=C/C=C/[C@H](O[C@@H]2O[C@H](C)[C@@H](O)[C@H](N)[C@@H]2O)C[C@@H]2O[C@](O)(C[C@@H](O)C[C@@H](O)[C@H](O)CC[C@@H](O)C[C@@H](O)CC(=O)O[C@H]1C)C[C@H](O)[C@H]2C(=O)O [Amphotericin B, reference compound]
[1]; 24 h incubation
  inhibition at 0.03 µg/mL: 19%
  inhibition at 0.06 µg/mL: 63%
  inhibition at 0.12 µg/mL: 100%
  inhibition at 0.25 µg/mL: 100%
  inhibition at 0.5 µg/mL: 100%
  inhibition at 1 µg/mL: 100%
  inhibition at 2 µg/mL: 100%
  inhibition at 4 µg/mL: 100%
  inhibition at 8 µg/mL: 100%
  inhibition at 16 µg/mL: 100%
[1]; 48 h incubation
  inhibition at 0.03 µg/mL: 11.2%
  inhibition at 0.06 µg/mL: 45.4%
  inhibition at 0.12 µg/mL: 84.5%
  inhibition at 0.25 µg/mL: 100%
  inhibition at 0.5 µg/mL: 100%
  inhibition at 1 µg/mL: 100%
  inhibition at 2 µg/mL: 100%
  inhibition at 4 µg/mL: 100%
  inhibition at 8 µg/mL: 100%
  inhibition at 16 µg/mL: 100%
[2]; 24 h incubation
  inhibition at 0.03 µg/mL: 16.8%
  inhibition at 0.06 µg/mL: 71.3%
  inhibition at 0.12 µg/mL: 100%
  inhibition at 0.25 µg/mL: 100%
  inhibition at 0.5 µg/mL: 100%
  inhibition at 1 µg/mL: 100%
  inhibition at 2 µg/mL: 100%
  inhibition at 4 µg/mL: 100%
  inhibition at 8 µg/mL: 100%
  inhibition at 16 µg/mL: 100%
[2]; 48 h incubation
  inhibition at 0.03 µg/mL: 25%
  inhibition at 0.06 µg/mL: 23%
  inhibition at 0.12 µg/mL: 68%
  inhibition at 0.25 µg/mL: 100%
  inhibition at 0.5 µg/mL: 100%
  inhibition at 1 µg/mL: 100%
  inhibition at 2 µg/mL: 100%
  inhibition at 4 µg/mL: 100%
  inhibition at 8 µg/mL: 100%
  inhibition at 16 µg/mL: 100%
[3]; 48 h incubation
  inhibition at 0.03 µg/mL: 3%
  inhibition at 0.06 µg/mL: 33.5%
  inhibition at 0.12 µg/mL: 37.2%
  inhibition at 0.25 µg/mL: 100%
  inhibition at 0.5 µg/mL: 100%
  inhibition at 1 µg/mL: 100%
  inhibition at 2 µg/mL: 100%
  inhibition at 4 µg/mL: 100%
  inhibition at 8 µg/mL: 100%
  inhibition at 16 µg/mL: 100%
[3]; 72 h incubation
  inhibition at 0.03 µg/mL: 0%
  inhibition at 0.06 µg/mL: 0%
  inhibition at 0.12 µg/mL: 41.5%
  inhibition at 0.25 µg/mL: 85.2%
  inhibition at 0.5 µg/mL: 100%
  inhibition at 1 µg/mL: 100%
  inhibition at 2 µg/mL: 100%
  inhibition at 4 µg/mL: 100%
  inhibition at 8 µg/mL: 100%
  inhibition at 16 µg/mL: 100%
